Assay results published in patent US9999649B2, “Peptide having ability to synthesize collagen and use thereof” (NOVACELL TECHNOLOGY INC., priority 2013, dated 2018).
No end group written: not given here. *: point of attachment. Palmitoyl = CCCCCCCCCCCCCCCC(=O)*; Oleyl = CCCCCCCC/C=C\CCCCCCCC*

Tests used:
Assay type in all cases: cell-based, human
[1] = test system: collagen I expression induced by YIGSR peptide; experiment: YIGSR peptide-induced collagen I expression under FAK and MEK inhibitors, western blot; conditions: Hs27 cells, 1 μM inhibitor with 1 μM YIGSR peptide, 24 hours
Method: To evaluate whether collagen I expression induced by YIGSR peptide according to one embodiment of the present invention is mediated by FAK and MAPK or not, FAK and MEK inhibitors were used.
Hs27 cells of Example 3 were cultured in a 24-well plate provided that the cells were cultured in a serum-free state for 24 hours. Then, the cells were treated with 1 μM of the FAK-specific inhibitor, PF573228 (Tocris Bioscience, United Kingdom) for 24 hours.

type I collagen = experiment: Type I collagen synthesis by Pal-YIGSR peptide, immunoblotting in Hs27 skin fibroblasts; conditions: for effect compared with the original YIGSR peptide: collagen I production, summary statement b41
Method: Hs27 skin fibroblasts, which are under culture, were treated with the peptide derivatives prepared in Examples 1 and 2, and Comparative Example 2, and an amount of expressed type I collagen in the cells were measured by an immunoblotting method. The Hs27 skin fibroblasts were cultured by using DMEM medium, (Lonza, USA), to which 10% FBS was added (Lonza, USA), under the condition of 95% of humidity, 5% CO2, and 37° C. Hs27 skin fibroblasts were treated with each concentration of the peptide (0, 2, 25, 50 and 100 μM) for 24 hours or 100 μM of the peptide for each period of time (0, 0.5, 6, 12 and 24 hours). Then, the treated cells were sonicated in the lysis buffer (150 mM NaCl, 1% Triton X-100, 10 mM Tris, 1 mM EDTA, pH 7.4). Thereafter, supernatant was isolated through centrifugation, and quantification was performed through Bradford assay. The same amount of a protein was mixed in a 5× sample buffer and the mixture was heated for 5 minutes at 95° C. The resultant was electrophoresed on 6-15% concentration gradient SDS-Polyacrylamide gel electrophoresis (SDS-PAGE) and then adsorbed to a nitrocellulose membrane. Anti-type I collagen primary antibody (Rockland, USA), anti-phospho-ERK primary antibody (Cell signaling, USA), and anti-actin primary antibody (Santa Cruz, USA) were diluted in TBST buffer (Tris buffered saline with 0.05% Tween 20, pH 7.6) including 5% skimmed milk and reacted for 16 hours. Then, the resultant was washed with TBST for 10 minutes 6 times. Then, the membrane was treated with anti-mouse rabbit peroxidase-conjugated secondary antibody (KPL, USA) for reaction for one hour at room temperature, and washed again with TBST 6 times for 10 minutes followed by development with the enhanced chemiluminescent (ECL) solution (Amersham, USA) for evaluation.

ERK = ERK phosphorylation by Pal-YIGSR peptide, immunoblotting in Hs27 skin fibroblasts; conditions: FIG. 8
Method: Hs27 skin fibroblasts, which are under culture, were treated with the peptide derivatives prepared in Examples 1 and 2, and Comparative Example 2, and an amount of expressed type I collagen in the cells were measured by an immunoblotting method. The Hs27 skin fibroblasts were cultured by using DMEM medium, (Lonza, USA), to which 10% FBS was added (Lonza, USA), under the condition of 95% of humidity, 5% CO2, and 37° C. Hs27 skin fibroblasts were treated with each concentration of the peptide (0, 2, 25, 50 and 100 μM) for 24 hours or 100 μM of the peptide for each period of time (0, 0.5, 6, 12 and 24 hours). Then, the treated cells were sonicated in the lysis buffer (150 mM NaCl, 1% Triton X-100, 10 mM Tris, 1 mM EDTA, pH 7.4). Thereafter, supernatant was isolated through centrifugation, and quantification was performed through Bradford assay. The same amount of a protein was mixed in a 5× sample buffer and the mixture was heated for 5 minutes at 95° C. The resultant was electrophoresed on 6-15% concentration gradient SDS-Polyacrylamide gel electrophoresis (SDS-PAGE) and then adsorbed to a nitrocellulose membrane. […]

Hs27 skin fibroblasts = experiment: Cell growth by crystal violet assay; conditions: 72 hours
Method: The Hs27 skin fibroblasts were seeded on a 24-well culture plate (40,000 cells per each), and cultured under 5% CO2, and 37° C. for 24 hours to allow cells to be attached to a bottom of the culture plate. Next day, a medium was changed to a medium including FBS. Then, cells were cultured again for 24 hours and treated with the peptide derivatives of Examples 1 and 2, and Comparative Examples 1 and 2 followed by further culture of 72 hours. Then, cell growth was measured through crystal violet assay.
Specifically, the medium in each well was removed, and […] of 0.1% crystal violet solution was added to each well followed by 5 minutes of staining. Then, the crystal violet solution was removed, and wells were washed with deionized water four times until the well became transparent. When the washed distilled water became transparent, distilled water was removed. Then, 1 ml of 95% ethanol was added with stirring for 20 minutes to dissolve crystal violet from stained cells. […] of the solution was dispensed to a 96-well plate, and absorbance was measured at 590 nm by using ELISA reader. Then, relative cell growth was calculated by using, as a control, a group which was not treated with a material to be tested.

collagen = experiment: Influence of palmitoyl group: collagen synthesis by RGD and Pal-RGD peptides; conditions: FIG. 10
Method: Then, the treated cells were sonicated in the lysis buffer (150 mM NaCl, 1% Triton X-100, 10 mM Tris, […], pH 7.4). Thereafter, supernatant was isolated through centrifugation, and quantification was performed through Bradford assay. The same amount of a protein was mixed in a 5× sample buffer, and the mixture was heated for 5 minutes at 95° C. The resultant was electrophoresed on 6-15% concentration gradient SDS-polyacrylamide gel electrophoresis (SDS-PAGE), and then adsorbed to a nitrocellulose membrane. An anti-type I collagen primary antibody (Rockland, USA) and anti-actin primary antibody (Santa Cruz, USA) were diluted in TBST buffer (Tris buffered saline with 0.05% Tween 20, pH 7.6) including 5% skimmed milk and reacted for 16 hours. Then, the resultant was washed with TBST for 10 minutes 6 times. Thereafter, the membrane was treated with an anti-mouse rabbit peroxidase-conjugated secondary antibody (KPL, USA) for reaction for one hour at room temperature, and washed again with TBST 6 times for 10 minutes followed by development with the enhanced chemiluminescent (ECL) solution (Amersham, USA) for evaluation. In addition, the western blot image was quantitatively compared with densitometric analysis by using image J program (Ver 1.38, //rsbweb.nih.gov/ij/index.html). […]

| Compound | effect of inhibitor on collagen I expression induced by YIGSR peptide [1] | effect compared with the original YIGSR peptide (type I collagen) | ERK phosphorylation induction (ERK) | collagen synthesis degree versus control (collagen) | further results |
| --- | --- | --- | --- | --- | --- |
| COc1cccc(-c2cc(=O)c3ccccc3o2)c1N [PD98059] | remarkably inhibited |  |  |  |  |
| Palmitoyl-YIGSR [Pal-YIGSR, peptide derivative in which a palmitoyl group is attached to an N-terminal of the YIGSR peptide] |  | more potent effect than the YIGSR peptide | observed |  | amount of synthesized collagen depending on concentration (type I collagen; 0, 2, 25, 50 and 100 μM, 24 hours): increased as concentration increased; amount of synthesized collagen depending on exposure time (type I collagen; 100 μM, 0, 0.5, 6, 12 and 24 hours): increased as exposure time increased; cell growth relative to untreated control (Hs27 skin fibroblasts; 100 μM): 13%; cell growth relative to untreated control (Hs27 skin fibroblasts; 500 μM): 23%; concentration range in which cell growth was shown (Hs27 skin fibroblasts): 0.5 to 50 µM |
| Pal-RGD [Pal-RGD peptide] |  |  |  | not significantly different from that of the control |  |
| RGD [RGD peptide] |  |  |  | not significantly different from that of the control |  |
| Oleyl-YIGSR [YIGSR peptide having an N-terminal, to which an oleyl group is added instead of the palmitoyl group] |  | no improved activity | rarely affect ERK phosphorylation |  | degree of collagen synthesis compared with control and Pal-YIGSR (type I collagen; Hs27 skin fibroblasts, FIG. 7): no difference from the control |
| CS(=O)(=O)c1cccc(CNc2nc(Nc3ccc4c(c3)CCC(=O)N4)ncc2C(F)(F)F)c1 [PF573228] | remarkably repressed |  |  |  |  |
